Values after ≈ are worked out from the molar mass of the structure shown.
What was measured:
[1] = Solubility in solvent; format: physicochemical; conditions: organic solvents (methanol, DMSO)
[2] = tested on: Mycobacterium intracellulare JCM 6384 strain; assay: Antibacterial activity against Mycobacterium avium complex, broth microdilution MIC (Test II-1); format: cell-based; conditions: JCM6384, 37° C. for 120 hours, MTT, minimum concentration inhibiting growth of 90% or more
Protocol: (§1) 6 mL of 7H9 liquid medium (Middlebrook 7H9 broth 0.5% (DIFCO), bovine serum albumin 5.0% (SIGMA), glucose 2.0% (Wako Pure Chemical Industries, Ltd.) and sodium chloride 0.85% (Kanto Chemical Co., Inc.)) containing 0.05% Tween80 (Wako Pure Chemical Industries, Ltd.) was put in a cell culturing flask T25 (Corning incorporated). To this flask was added 200 μL of a glycerol stored bacterial suspension of Mycobacterium avium (JCM15430, given by Institute of Physical and Chemical Research, Microbe Division) or 120 μL of a glycerol stored bacterial suspension of Mycobacterium intracellulare (JCM6384, given by Institute of Physical and Chemical Research, Microbe Division). The Mycobacterium avium was statically cultured at 37° C. for 96 hours, and the Mycobacterium intracellulare was statically cultured at 37° C. for 72 hours. The cultured bacterial suspension was diluted with the medium by 200 times for the Mycobacterium avium and by 600 times for the Mycobacterium intracellulare to prepare bacterial suspensions for inoculation (equivalent to 4×10^6 CFU/mL). The minimum inhibitory concentration (MIC) of each bacterial suspension was measured by carrying out a broth microdilution method in accordance with the following procedure. To a 96-well microplate, a two-stage dilution series (a final concentration of 0.001 to 50 μg/mL) of a test compound sample prepared beforehand was dispensed at 5 μL/well. Next, the bacterial suspension for inoculation was added at 95 μL/well. The culture solution in the well was mixed, and the resulting mixture cultured at 37° C. for 120 hours. After the culture, MTT reagent (SIGMA) was added at 5 μL/well, and the resulting mixture was cultured at 37° C. for 16 hours. Thereafter, a cytolytic buffer (dimethylformamide: 40.0% (nacalai tesque), acetic acid: 2.0% (Kanto Chemical Co., Inc.), sodium dodecyl sulfate: 20.0% (Wako Pure Chemical Industries, Ltd.), hydrochloric acid: 0.03 N (Kanto Chemical Co., Inc.)) at 95 μL/well, and the resulting mixture was shaken for 1 hour. For the culture solution in each well, the absorbance was measured at 570 nm, the growth inhibition rate was then calculated, and the minimum concentration indicative of inhibition of growth of 90% or more of bacteria was defined as a MIC value. Compounds 40551-F, -D, -G, -H, -I, -K and -L were used as test compounds, and ethambutol which is a known drug that is used for treatment of MAC infection was used as a comparative compound.

[3] = tested on: Mycobacterium avium JCM 15430 strain; assay: as above; format: cell-based; conditions: JCM15430, 37° C. for 120 hours, MTT, minimum concentration inhibiting growth of 90% or more
Protocol: as §1

[4] = tested on: Mycobacterium bovis BCG Pasteur strain; assay: microbe, parasite or virus in culture; format: cell-based; conditions: Mycobacterium tuberculosis variant bovis BCG
[5] = tested on: Mycobacterium smegmatis MC^2155 strain; assay: Antibacterial activity against other nontuberculous mycobacteria, broth microdilution MIC (Test II-2); format: cell-based; conditions: Mycolicibacterium smegmatis, 37° C. for 30 hours, growth observed with the naked eye
Protocol: as §1
A test against Mycobacterium smegmatis as other nontuberculous mycobacteria was conducted in accordance with the following procedure. 6 mL of 7H9 liquid medium containing 0.5% Tween80 (Wako Pure Chemical Industries, Ltd.) was put in a cell culturing flask T25 (Corning incorporated). In this flask, a glycelol stored bacterial suspension of Mycobacterium smegmatis (MC^2155, acquired from American Type Culture Collection) was inoculated with one platinum loop, and statically cultured at 37° C. for 30 hours. The cultured bacterial suspension was then diluted by 200 times with the medium to prepare a bacterial suspension for inoculation (equivalent to 8×10^6 CFU/mL). The MIC of the bacterial suspension was measured by carrying out a broth microdilution method in the same procedure as in Test II-1. The bacterial suspension was cultured under conditions of 37° C. for 30 hours, and the MIC value was determined by observing growth of bacteria with the naked eye.

CCC(C)/C=C/C(=O)Nc1ccn(C2CCC(OC3OC(C)C(N(C)C)C(O)C3O)C(C)O2)c(=O)n1 (stereo not drawn) [Compound 40551-G]
Solubility in solvent [1]: soluble in methanol, DMSO, etc.
MIC [2]: 3.12 µg/mL (≈ 6.13 µM)
MIC [3]: 6.25 µg/mL (≈ 12.3 µM)
MIC [4]: 6.25 µg/mL (≈ 12.3 µM)
MIC [5]: 12.5 µg/mL (≈ 24.6 µM)

CC(C)/C=C/C(=O)Nc1ccn(C2CCC(OC3OC(C)C(N(C)C)C(O)C3O)C(C)O2)c(=O)n1 (stereo not drawn) [Compound 40551-L, (E)-N-(1-(5-((5-(dimethylamino)-3,4-dihydroxy-6-methyltetrahydro-2H-pyran-2-yl)oxy)-6-methyltetrahydro-2H-pyran-2-yl)-2-oxo-1,2-dihydropyrimidin-4-yl)-4-methylpenta-2-enamide]
Solubility in solvent [1]: soluble in methanol, DMSO, etc.
MIC [2]: 0.78 µg/mL (≈ 1.58 µM)
MIC [3]: 3.12 µg/mL (≈ 6.31 µM)
MIC [4]: 1.56 µg/mL (≈ 3.15 µM)
MIC [5]: 3.12 µg/mL (≈ 6.31 µM)

C/C=C(\C)C(=O)Nc1ccn(C2CCC(OC3OC(C)C(N(C)C)C(O)C3O)C(C)O2)c(=O)n1 (stereo not drawn) [Compound 40551-I, (E)-N-(1-(5-((5-(dimethylamino)-3,4-dihydroxy-6-methyltetrahydro-2H-pyran-2-yl)oxy)-6-methyltetrahydro-2H-pyran-2-yl)-2-oxo-1,2-dihydropyrimidin-4-yl)-2-methylbuta-2-enamide]
Solubility in solvent [1]: soluble in methanol, DMSO, etc.
MIC [2]: 25 µg/mL (≈ 52 µM)
MIC [4]: 6.25 µg/mL (≈ 13 µM)

CC[C@@H](CO)NCCN[C@@H](CC)CO [Ethambutol, reference compound]
MIC [2]: 3.12 µg/mL (≈ 15.3 µM)
MIC [3]: 12.5 µg/mL (≈ 61.2 µM)
MIC [4]: 1.56 µg/mL (≈ 7.64 µM)
MIC [5]: 0.78 µg/mL (≈ 3.82 µM)

CC1OC(n2ccc(NC(=O)c3ccc(N4C(=O)C(C)(CO)NC4(C)C)cc3)nc2=O)CCC1OC1OC(C)C(N(C)C)C(O)C1O (stereo not drawn) [Compound 40551-H]
Solubility in solvent [1]: soluble in methanol, DMSO, etc.
MIC [2]: 1.56 µg/mL (≈ 2.37 µM)
MIC [3]: 12.5 µg/mL (≈ 19 µM)
MIC [4]: 0.39 µg/mL (≈ 0.592 µM)
MIC [5]: 1.56 µg/mL (≈ 2.37 µM)

CC(C)C(=O)Nc1ccc(C(=O)Nc2ccn(C3CCC(OC4OC(C)C(N(C)C)C(O)C4O)C(C)O3)c(=O)n2)cc1 (stereo not drawn) [Compound 40551-D]
Solubility in solvent [1]: soluble in methanol, DMSO, etc.
MIC [2]: 12.5 µg/mL (≈ 21.3 µM)
MIC [3]: 12.5 µg/mL (≈ 21.3 µM)
MIC [4]: 6.25 µg/mL (≈ 10.6 µM)

CC(C)CC(=O)Nc1ccn(C2CCC(OC3OC(C)C(N(C)C)C(O)C3O)C(C)O2)c(=O)n1 (stereo not drawn) [Compound 40551-K]
Solubility in solvent [1]: soluble in methanol, DMSO, etc.
MIC [2]: 6.25 µg/mL (≈ 13 µM)
MIC [3]: 25 µg/mL (≈ 51.8 µM)
MIC [4]: 6.25 µg/mL (≈ 13 µM)
MIC [5]: 25 µg/mL (≈ 51.8 µM)

CC(C)=CC(=O)Nc1ccn(C2CCC(OC3OC(C)C(N(C)C)C(O)C3O)C(C)O2)c(=O)n1 (stereo not drawn) [Compound 40551-F, N-(1-(5-((5-(dimethylamino)-3,4-dihydroxy-6-methyltetrahydro-2H-pyran-2-yl)oxy)-6-methyltetrahydro-2H-pyran-2-yl)-2-oxo-1,2-dihydropyrimidine-4-yl)-3-methylbuta-2-enamide]
Solubility in solvent [1]: soluble in methanol, DMSO, etc.
MIC [2]: 0.39 µg/mL (≈ 0.812 µM)
MIC [3]: 0.78 µg/mL (≈ 1.62 µM)
MIC [4]: 1.56 µg/mL (≈ 3.25 µM)
MIC [5]: 3.12 µg/mL (≈ 6.49 µM)
